Assay results published in patent publication US11939314B2, “Quinolin-2-one derivatives” (MERCK PATENT GMBH, priority 2016, dated 2024).
Where a name gives a salt, the structure may show the parent alone.

What was measured:
c-Kit(V654A) = molecular target: T1, c-Kit(V654A) (Homo sapiens, UniProt P10721, V654A); test: c-Kit(V654A) assay; format: biochemical; conditions: recombinant human c-Kit aa 544-end, 200 μM ATP, 1.4E-06 means 1.4×10^−6, read-out: Inhibition (IC50) of c-KIT (V654A)
T1 construct: amino acids 544-end containing the V654A mutation; GST (N)
Method in brief: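 Radiometric filter-binding read-out: substrate 33P incorporation counted by scintillation after P30 filtermat washes in 75 mM phosphoric acid and methanol. Enzyme: N-GST recombinant human c-Kit aa 544-end carrying V654A.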

PDGFRalpha(V561D) = molecular target: T2, PDGFRalpha(V561D) (Homo sapiens, UniProt P16234, V561D); test: PDGFRalpha(V561D) assay; format: biochemical; conditions: recombinant human PDGFRalpha aa 550-end, 200 μM ATP, 1.4E-06 means 1.4×10^−6, read-out: Inhibition (IC50) of PDGFRα (V561D)
T2 construct: recombinant human PDGFRalpha, amino acids 550end containing the V561 D mutation; 6His (N)
Method in brief: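 Radiometric filter-binding assay: substrate phosphorylation by recombinant N-His-tagged human PDGFRα 550-end V561D was quenched with 3% phosphoric acid after 40 min at room temperature, then counted.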

T1 sequence (P10721 544-976 V654A): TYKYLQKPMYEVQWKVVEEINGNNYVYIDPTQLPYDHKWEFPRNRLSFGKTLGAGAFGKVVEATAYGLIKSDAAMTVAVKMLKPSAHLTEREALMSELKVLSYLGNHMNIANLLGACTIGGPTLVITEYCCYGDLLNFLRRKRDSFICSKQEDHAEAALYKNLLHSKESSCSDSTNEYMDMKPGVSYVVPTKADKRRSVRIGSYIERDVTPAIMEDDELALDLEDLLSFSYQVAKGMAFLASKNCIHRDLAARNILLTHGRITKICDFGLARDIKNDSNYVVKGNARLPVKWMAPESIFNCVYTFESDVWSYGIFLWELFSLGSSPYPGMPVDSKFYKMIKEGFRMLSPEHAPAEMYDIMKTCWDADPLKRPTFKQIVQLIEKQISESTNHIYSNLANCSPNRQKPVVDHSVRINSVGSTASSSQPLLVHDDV
T2 sequence (P16234 550-1089 V561D): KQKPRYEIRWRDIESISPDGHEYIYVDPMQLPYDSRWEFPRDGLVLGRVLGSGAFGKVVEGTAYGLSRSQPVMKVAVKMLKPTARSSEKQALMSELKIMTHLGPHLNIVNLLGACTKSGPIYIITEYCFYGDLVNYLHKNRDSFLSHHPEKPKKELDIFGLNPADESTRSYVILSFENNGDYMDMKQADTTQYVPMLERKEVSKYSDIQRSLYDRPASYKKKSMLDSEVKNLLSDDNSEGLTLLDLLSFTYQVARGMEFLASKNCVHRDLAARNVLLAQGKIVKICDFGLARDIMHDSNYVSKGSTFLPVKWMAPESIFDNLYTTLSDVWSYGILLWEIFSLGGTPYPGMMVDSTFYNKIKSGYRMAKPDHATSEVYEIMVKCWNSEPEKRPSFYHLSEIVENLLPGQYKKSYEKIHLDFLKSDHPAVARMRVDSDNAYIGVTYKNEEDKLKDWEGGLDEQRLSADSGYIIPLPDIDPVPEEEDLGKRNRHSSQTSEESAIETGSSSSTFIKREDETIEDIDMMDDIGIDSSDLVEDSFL

CN1CCN(c2ncc(-n3cc(-c4cc5ccccc5[nH]c4=O)nn3)cn2)CC1 [A66, 3-{1-[2-(4-methyl-piperazin-1-yl)-pyrimidin-5-yl]-1H-[1,2,3]triazol-4-yl}-1H-quinolin-2-one]
IC50 (c-Kit(V654A)): 640 nM
IC50 (PDGFRalpha(V561D)): 190 nM

CCN(CC)CC1CCN(C(=O)c2ccc(-n3cc(-c4cc5cc(F)c(F)cc5[nH]c4=O)nn3)cc2)C1 (stereo not drawn) [A239, 3-{1-[4-(3-diethylaminomethyl-pyrrolidine-1-carbonyl)-phenyl]-1H-[1,2,3]triazol-4-yl}-6,7-difluoro-1H-quinolin-2-one]
IC50 (c-Kit(V654A)): 330 nM
IC50 (PDGFRalpha(V561D)): 1200 nM

O=C(c1ccc(-n2cc(-c3cc4ncccc4[nH]c3=O)nn2)cc1)N1CCOCC1 [A85, 3-{1-[4-(morpholine-4-carbonyl)-phenyl]-1H-[1,2,3]triazol-4-yl}-1H-[1,5]naphthyridin-2-one]
IC50 (c-Kit(V654A)): 1300 nM
IC50 (PDGFRalpha(V561D)): 1700 nM

O=C(c1ccc(-n2cc(-c3cc4c(F)cc(F)cc4[nH]c3=O)nn2)cc1)N1CCOCC1 [A90, 5,7-difluoro-3-{1-[4-(morpholine-4-carbonyl)-phenyl]-1H-[1,2,3]triazol-4-yl}-1H-quinolin-2-one]
IC50 (c-Kit(V654A)): 20 nM
IC50 (PDGFRalpha(V561D)): 29 nM

COC[C@@H]1CCCN1C(=O)c1ccc(-n2cc(-c3cc4cc(F)ccc4[nH]c3=O)nn2)cc1 [A215, 6-fluoro-3-{1-[4-((S)-2-methoxymethyl-pyrrolidine-1-carbonyl)-phenyl]-1H-[1,2,3]triazol-4-yl}-1H-quinolin-2-one]
IC50 (c-Kit(V654A)): 64 nM
IC50 (PDGFRalpha(V561D)): 220 nM

O=C(c1ccc(-n2cc(-c3cc4cc(F)c(F)cc4[nH]c3=O)nn2)cc1)N1C[C@H]2CNC[C@H]2C1 [A307, 6,7-difluoro-3-{1-[4-((cis)-hexahydro-pyrrolo[3,4-c]pyrrole-2-carbonyl)-phenyl]-1H-[1,2,3]triazol-4-yl}-1H-quinolin-2-one]
IC50 (c-Kit(V654A)): 17 nM
IC50 (PDGFRalpha(V561D)): 240 nM

O=c1[nH]c2ccccc2cc1-c1cn(-c2ccc(OCCN3CCCC3)cc2)nn1 [A14, 3-{1-[4-(2-pyrrolidin-1-yl-ethoxy)-phenyl]-1H-[1,2,3]triazol-4-yl}-1H-quinolin-2-one]
IC50 (c-Kit(V654A)): 23 nM
IC50 (PDGFRalpha(V561D)): 20 nM

O=C(c1ccc(-n2cc(-c3cc4ccc(F)cc4[nH]c3=O)nn2)cc1)N1CCNCC1 [A117, 7-fluoro-3-{1-[4-(piperazine-1-carbonyl)-phenyl]-1H-[1,2,3]triazol-4-yl}-1H-quinolin-2-one]
IC50 (c-Kit(V654A)): 28 nM
IC50 (PDGFRalpha(V561D)): 11 nM

CN1CCN(C(=O)c2ccc(-n3cc(-c4cc5cc(F)c(F)cc5[nH]c4=O)nn3)cc2)CC1 [A157, 6,7-difluoro-3-{1-[4-(4-methyl-piperazine-1-carbonyl)-phenyl]-1H-[1,2,3]triazol-4-yl}-1H-quinolin-2-one]
IC50 (c-Kit(V654A)): 5.9 nM
IC50 (PDGFRalpha(V561D)): 0.32 nM

C=C(C)c1ccc(-n2cc(-c3cc4ccccc4[nH]c3=O)nn2)cc1 [A80, 3-[1-(4-isopropenyl-phenyl)-1H-[1,2,3]triazol-4-yl]-1H-quinolin-2-one]
IC50 (c-Kit(V654A)): 120 nM
IC50 (PDGFRalpha(V561D)): 44 nM

CN(C)C[C@H]1CCCN1C(=O)c1ccc(-n2cc(-c3cc4cc(Cl)ccc4[nH]c3=O)nn2)cc1 [A322, 6-chloro-3-{1-[4-((R)-2-dimethylaminomethyl-pyrrolidine-1-carbonyl)-phenyl]-1H-[1,2,3]triazol-4-yl}-1H-quinolin-2-one]
IC50 (c-Kit(V654A)): 25 nM
IC50 (PDGFRalpha(V561D)): 65 nM

CO[C@@H]1CCN(C(=O)c2ccc(-n3cc(-c4cc5cc(F)ccc5[nH]c4=O)cn3)cc2)C1 [A298, 6-fluoro-3-{1-[4-((R)-3-methoxy-pyrrolidine-1-carbonyl)-phenyl]-1H-pyrazol-4-yl}-1H-quinolin-2-one]
IC50 (c-Kit(V654A)): 41 nM
IC50 (PDGFRalpha(V561D)): 21 nM

COCCCN1CCN(C(=O)c2ccc(-n3cc(-c4cc5c(F)cccc5[nH]c4=O)nn3)cc2)CC1 [A87, 5-fluoro-3-(1-{4-[4-(3-methoxy-propyl)-piperazine-1-carbonyl]-phenyl}-1H-[1,2,3]triazol-4-yl)-1H-quinolin-2-one]
IC50 (c-Kit(V654A)): 25 nM
IC50 (PDGFRalpha(V561D)): 12 nM

CO[C@@H]1C[C@@H](CO)N(C(=O)c2ccc(-n3cc(-c4cc5cc(Cl)ccc5[nH]c4=O)nn3)cc2)C1 [A248, 6-chloro-3-{1-[4-((2S,4R)-2-hydroxymethyl-4-methoxy-pyrrolidine-1-carbonyl)-phenyl]-1H-[1,2,3]triazol-4-yl}-1H-quinolin-2-one]
IC50 (c-Kit(V654A)): 35 nM
IC50 (PDGFRalpha(V561D)): 45 nM

COC[C@H]1CC[C@H](COC)N1C(=O)c1ccc(-n2cc(-c3cc4cc(F)c(F)cc4[nH]c3=O)nn2)cc1 [A220, 3-{1-[4-((2R,5R)-2,5-bis-methoxymethyl-pyrrolidine-1-carbonyl)-phenyl]-1H-[1,2,3]triazol-4-yl}-6,7-difluoro-1H-quinolin-2-one]
IC50 (c-Kit(V654A)): 980 nM
IC50 (PDGFRalpha(V561D)): 500 nM

CN(C)[C@@H]1CCCN(C(=O)c2ccc(-n3cc(-c4cc5cc(F)ccc5[nH]c4=O)nn3)cc2)C1 [A331, 3-{1-[4-((R)-3-dimethylamino-piperidine-1-carbonyl)-phenyl]-1H-[1,2,3]triazol-4-yl}-6-fluoro-1H-quinolin-2-one]
IC50 (c-Kit(V654A)): 63 nM
IC50 (PDGFRalpha(V561D)): 570 nM

O=C(c1ccc(-n2cc(-c3cc4cccnc4[nH]c3=O)nn2)cc1)N1CCNCC1 [A121, 3-{1-[4-(piperazine-1-carbonyl)-phenyl]-1H-[1,2,3]triazol-4-yl}-1H-[1,8]naphthyridin-2-one]
IC50 (c-Kit(V654A)): 40 nM
IC50 (PDGFRalpha(V561D)): 16 nM

O=C(c1ccc(-n2cc(-c3cc4cc(F)ccc4[nH]c3=O)nn2)cc1)N1CC[C@@H](O)C1 [A181, 6-fluoro-3-{1-[4-((R)-3-hydroxy-pyrrolidine-1-carbonyl)-phenyl]-1H-[1,2,3]triazol-4-yl}-1H-quinolin-2-one]
IC50 (c-Kit(V654A)): 8.5 nM
IC50 (PDGFRalpha(V561D)): 0.71 nM

O=C(O)c1ccc(-n2cc(-c3cc4cccnc4[nH]c3=O)nn2)cc1 [A77, 4-[4-(2-Oxo-1,2-dihydro-[1,8]naphthyridin-3-yl)-[1,2,3]triazol-1-yl]-benzoic acid]
IC50 (c-Kit(V654A)): 470 nM
IC50 (PDGFRalpha(V561D)): 110 nM

CN(C)C[C@H]1CCN(C(=O)c2ccc(-n3cc(-c4cc5cc(F)c(F)cc5[nH]c4=O)nn3)cc2)C1 [A335, 3-{1-[4-((R)-3-dimethylaminomethyl-pyrrolidine-1-carbonyl)-phenyl]-1H-[1,2,3]triazol-4-yl}-6,7-difluoro-1H-quinolin-2-one]
IC50 (c-Kit(V654A)): 170 nM
IC50 (PDGFRalpha(V561D)): 680 nM

CN1CCN(C(=O)c2ccc(-n3cc(-c4cc5ccccc5[nH]c4=O)cn3)cc2)CC1 [A74, 3-{1-[4-(4-methyl-piperazine-1-carbonyl)-phenyl]-1H-pyrazol-4-yl}-1H-quinolin-2-one]
IC50 (c-Kit(V654A)): 8 nM
IC50 (PDGFRalpha(V561D)): 6 nM

CN(C)[C@@H]1CCCN(C(=O)c2ccc(-n3cc(-c4cc5ccc(F)cc5[nH]c4=O)nn3)cc2)C1 [A333, 3-{1-[4-((R)-3-dimethylamino-piperidine-1-carbonyl)-phenyl]-1H-[1,2,3]triazol-4-yl}-7-fluoro-1H-quinolin-2-one]
IC50 (c-Kit(V654A)): 63 nM
IC50 (PDGFRalpha(V561D)): 120 nM

O=C(c1ccc(-n2cc(-c3cc4ccccc4[nH]c3=O)nn2)cc1F)N1CCOCC1 [A37, 3-{1-[3-fluoro-4-(morpholine-4-carbonyl)-phenyl]-1H-[1,2,3]triazol-4-yl}-1H-quinolin-2-one]
IC50 (c-Kit(V654A)): 38 nM
IC50 (PDGFRalpha(V561D)): 9 nM

O=C(c1ccc(-n2cc(-c3cc4cc(F)ccc4[nH]c3=O)nn2)cc1)N1CCOCC1 [A1, 6-fluoro-3-{1-[4-(morpholine-4-carbonyl)-phenyl]-1H-[1,2,3]triazol-4-yl}-1H-quinolin-2-one]
IC50 (c-Kit(V654A)): 6 nM
IC50 (PDGFRalpha(V561D)): 2 nM

N[C@@H]1CCCN(C(=O)c2ccc(-n3cc(-c4cc5cc(F)c(F)cc5[nH]c4=O)nn3)cc2)C1 [A309, 3-{1-[4-((R)-3-amino-piperidine-1-carbonyl)-phenyl]-1H-[1,2,3]triazol-4-yl}-6,7-difluoro-1H-quinolin-2-one hydrochloride]
IC50 (c-Kit(V654A)): 63 nM
IC50 (PDGFRalpha(V561D)): 130 nM

Cc1ccc2cc(-c3cn(-c4ccc(C(=O)N5CCOCC5)cc4)nn3)c(=O)[nH]c2n1 [A30, 7-methyl-3-{1-[4-(morpholine-4-carbonyl)-phenyl]-1H-[1,2,3]triazol-4-yl}-1H-[1,8]naphthyridin-2-one]
IC50 (c-Kit(V654A)): 2200 nM
IC50 (PDGFRalpha(V561D)): 150 nM

CN1CCN(C(=O)c2ccc(-n3cc(-c4cc5cccnc5[nH]c4=O)nn3)cc2)CC1 [A64, 3-{1-[4-(4-methyl-piperazine-1-carbonyl)-phenyl]-1H-[1,2,3]triazol-4-yl}-1H-[1,8]naphthyridin-2-one]
IC50 (c-Kit(V654A)): 44 nM
IC50 (PDGFRalpha(V561D)): 16 nM

CN(C)C1CCN(C(=O)c2ccc(-n3cc(-c4cc5cc(F)ccc5[nH]c4=O)nn3)cc2)CC1 [A172, 3-{1-[4-(4-dimethylamino-piperidine-1-carbonyl)-phenyl]-1H-[1,2,3]triazol-4-yl}-6-fluoro-1H-quinolin-2-one]
IC50 (c-Kit(V654A)): 6.3 nM
IC50 (PDGFRalpha(V561D)): 25 nM

CN[C@@H]1CCN(C(=O)c2ccc(-n3cc(-c4cc5cc(F)ccc5[nH]c4=O)nn3)cc2)C1 [A311, 6-Fluoro-3-{1-[4-((R)-3-methylamino-pyrrolidine-1-carbonyl)-phenyl]-1H-[1,2,3]triazol-4-yl}-1H-quinolin-2-one hydrochloride]
IC50 (c-Kit(V654A)): 21 nM
IC50 (PDGFRalpha(V561D)): 310 nM

O=C(c1ccc(-n2cc(-c3cc4cc(F)ccc4[nH]c3=O)nn2)cc1)N1CCOC[C@H]1CO [A213, 6-fluoro-3-{1-[4-((R)-3-hydroxymethyl-morpholine-4-carbonyl)-phenyl]-1H-[1,2,3]triazol-4-yl}-1H-quinolin-2-one]
IC50 (c-Kit(V654A)): 65 nM
IC50 (PDGFRalpha(V561D)): 37 nM
